In general, IC50 refers to the concentration needed to halve the response being measured.

Data set [1] relates to MDA-MB-435 cells. The data set can be described thus: Uptake of DOX, DOXSF and acyclic-RGD-4C-DOXSF by flow cytometry. The class given is cell-based, human. To be noted: for RFU with 100 nM drug / RFU with 500 nM drug / RFU with 1000 nM drug: no additional Mn2+. As for the experimental part:
MDA-MB435 breast cancer cells in log phase growth were dissociated with trypsin-EDTA, counted, resuspended in media at 2×10^5 cells/mL, and plated into six-well plates (5.0×10^5 cells/well) and allowed to adhere overnight. Drug solutions of DOX, DOXSF, and ayclic-RGD-4C-DOXSF were prepared in DMSO with 1% acetic acid at 50 μM. Before treatment with drug, cell media was removed, cells were washed with HBSS (0.5 mL), and then fresh cell media, with or without 500 μM Mn^2+, was placed into the wells (2 mL). […] For each time point, the cell media was removed, cells were washed with HBSS, trypsinized, and trypsinization was quenched with 5 mL of cell media at 4° C. Cells were pelleted by centrifugation at 200 g for 5 min at 10° C. The supernatant was decanted, and the cells were resuspended in 5 mL of D-PBS at 4° C., repelleted, resuspended in 2 mL of D-PBS at 4° C., and placed on ice. […] The amount of drug uptake was measured by flow cytometry. Cells were analyzed with excitation at 488 nm (15 mW Ar ion laser), with emision monitored between 570 and 600 nm. Instrument settings were optimized for the cell line and held constant for all experiments; 10,000 cells were analyzed for each sample's anthracycline fluorescence. The data are presented as the mean fluorescence for each condition divided by the background, drug-free mean fluorescence.
Concentration of targeted drug relative to DOX and DOXSF in cells was determined from emission of the DOX fluorophore.

Data set [2] deals with T1, ανβ3 integrin present on viable MDA-MB-435 cells (Homo sapiens, UniProt P05106+P06756).
T1 construct: endogenous in cells
The data set is described as follows: Vitronectin cell adhesion (competition) assay. Conditions: MDA-MB-435 cell binding to vitronectin, 500 μM Mn2+; read-out: IC50 for inhibition of cell binding. The class given is cell-based. An excerpt: The data are presented as the mean fluorescence for each condition with the background, drug-free cell fluorescence subtracted.

For data set [3], the system named is MDA-MB-435 cells. The data set can be described thus: Growth inhibition assay (Example 6). Format: cell-based, human. Conditions: read-out: IC50 for inhibition of cell growth (nM), treatment time. The method, then: […] Cells were quantified via measuring crystal violet staining or cellular metabolism of MTT. For every experiment, each condition was performed in hexuplicate; experiments were performed at least twice.
Cancer cell growth inhibition: acyclic-RGD-4C-DOXSF and cyclic-(N-Me-VRGDf-NH)-DOXSF were also assayed for their ability to inhibit growth of MDA-MB-435 cells relative to DOX and DOXSF. Cells treated in cell culture plates and non-treated (-control) cells were allowed to grow to near confluency, and then quantified via measuring crystal violet staining or cellular metabolism of MTT. […] Earlier control experiments established that the miniscule amounts of formaldehyde that would be released even from complete hydrolysis of the conjugate would contribute nothing to the observed growth inhibition. Conjugation of cytotoxic drugs to triggers and targeting groups often causes a drop in cytotoxicity.

Data set [4] deals with MDA-MB-231. The data set can be described thus: Breast cancer cell growth inhibition, 4 h treatment. The method, then: (§1) Breast cancer cell growth inhibition: The ER-targeted DOX-formaldehyde conjugates, 11a-c, were evaluated against four breast cancer cell lines that differ in terms of estrogen receptor and multidrug resistance expression. MCF-7 cells are human breast adenocarcinoma cells that express estrogen receptor at a level of 195,000 sites/cell. MCF-7/Adr cells are an ER-negative, doxorubicin-resistant variant of the parent MCF-7 that express the multidrug resistance (MDR) phenotype. MDA-MB-231 and MDA-MB-435 are ER-negative human breast adenocarcinoma and ductal carcinoma cells, respectively. All cytotoxins were formulated as 100× solutions in DMSO/1% AcOH and delivered to cells as 1% DMSO (0.01% AcOH) in cell culture medium. In all experiments cell treatment lasted 4 h.
(§2) In Vitro cellular growth inhibition experiments: The IC50 for the targeted formaldehyde conjugates and all control compounds were performed as previously described with minor modifications. All compounds were solubilized in dimethylsulfoxide containing 1% v/v acetic acid. The concentrations of all 100× DMSO/1% AcOH drug solutions was determined spectrophotometrically by absorbance at 480 nm (ε=[…]). […] For every experiment each drug level and controls were performed in hexuplicate; each experiment was performed in at least duplicate. Error bars represent one standard deviation about the mean for the six wells per lane measured for each drug concentration.

Data set [5] concerns MDA-MB-435. The description is as above. The method, then:
as §1, §2

The test system of data set [6] is MCF-7/Adr cells. The data set is described as above. As for the experimental part: as §1, §2
In data set [7] the test system is PC-3 prostate cancer cells. The data set can be described thus: Cytotoxicity, crystal violet colony assay (Example 1). Format: cell-based. To be noted: for IC50: PC-3, 4 h treatment, read-out: IC50 cancer cell growth inhibition.
The test system of data set [8] is MCF-7. The description is as above. Format: cell-based, human. Conditions: for IC50: MCF-7, 4 h treatment, read-out: IC50 cancer cell growth inhibition. As for the experimental part: (§3) This cell suspension was dispensed in 200 μL aliquots into 96-well tissue culture plates. Plates were then incubated for 24 h at 37° C. in a humidified atmosphere of 5% CO2 and 95% air. The medium was replaced with 180 μL of growth medium prior to addition of the prodrug. Doxsaliform was dissolved in DMSO containing 1% glacial acetic acid at concentrations ranging from 1 mM to 10 mM and sterile-filtered through a 0.45 μm nylon centrifuge filter. The concentration was then corrected by measuring the solution absorbance at 480 nm (ε=11 500 L/(mol·cm). Serial dilutions (1:10) were made in sterile DMSO to yield seven solutions of decreasing drug concentration at 100× the respective working concentrations. The resulting solutions were individually diluted 1:10 in RPMI 1640; 20 μL of the resulting 10× solution was immediately added to the appropriate lane of cells. Additionally, two lanes were treated with 20 μL growth medium containing 10% sterile DMSO and one lane was treated with 200 μL of 1.5 M Tris buffer. The cells were incubated at 37° C. for 4 h, at which time the drug solutions were replaced with 200 μL of fresh growth medium. […] The extent of colony formation was determined using a crystal violet staining assay.
(§4) The biological activities of several of the N-Mannich base derivatives were determined by their in vitro cytotoxicity against MCF-7 and MCF-7/ADR human breast cancer derived cell lines. While MCF-7 cells are sensitive to doxorubicin, the MCF-7/ADR cell line is an MCF-7 derivative which is characterized by its marked resistance to doxorubicin.

Data set [9] relates to MCF-7/ADR. The description is as above. Format: cell-based, human. Conditions: for IC50: 4 h treatment, read-out: IC50 cancer cell growth inhibition. The method, then:
as §3, §4

Where [10] appears, read: MCF-7/Adr (−/+/+), 4 h treatment.

Like-named read-outs stand apart in the source and are kept apart here.

In the case of `COc1cccc2c1C(=O)c1c(O)c3c(c(O)c1C2=O)C[C@@](O)(C(=O)CO)C[C@@H]3O[C@H]1C[C@H](NCNC(=O)c2ccccc2O)[C@H](O)[C@H](C)O1` [doxsaliform, N-(2-Hydroxybenzamido-methyl)-doxorubicin], the “RFU with 100 nM drug” value in data set [1] (30 min) was determined as 1.88 RFU; in data set [1] (4 h), 3.23 RFU. Besides, the “RFU with 500 nM drug” value in data set [1] (30 min) is 5.55 RFU; in data set [1] (4 h) it was 13.25 RFU. In addition, the entries for the “RFU with 1000 nM drug” value in [1] (30 min) and in [1] (4 h) were 9.23 RFU and 24.51 RFU, respectively. In addition, the “fold uptake higher than acyclic-RGD-4C-DOXSF and DOX” value in [1] (4 h, 500 nM) is on record as 2 fold. Besides, the IC50 was greater than 10000 nM in data set [2]; 50 nM in data set [3] (4 h treatment); 80 ± 9 nM in data set [4] (MDA-MB-231 (−/+/−), 4 h treatment); 50 ± 9 nM in data set [5] (MDA-MB-435 (−/+/−), 4 h treatment); 2000 ± 320 nM in [6] (setting [10]); 80 nM in [7]. The IC50 came to 80 nM in data set [8] and 800 nM in data set [9]. Also, in [4] (MDA-MB-231), the “fold less cytotoxic than 11a-c” value was 2-3 fold. Besides, the “cytotoxicity relative to 11a-c” value in [5] (MDA-MB-435) is “equally cytotoxic”. Further, the DOX/doxsaliform in data set [7] (PC-3, fold increase in cytotoxicity, 4 h drug treatment) worked out at 4; in data set [8] (MCF-7, fold increase in cytotoxicity, 4 h drug treatment) it was 4; in data set [9] (fold increase in cytotoxicity, 4 h drug treatment), 10.
Regarding `COc1cccc2c1C(=O)c1c(O)c3c(c(O)c1C2=O)C[C@@](O)(C(=O)CO)C[C@@H]3O[C@H]1C[C@H](N)[C@H](O)[C@H](C)O1` [doxorubicin, reference compound], the “RFU with 100 nM drug” value was found to be 1.23 RFU in [1] (30 min) and 1.90 RFU in data set [1] (4 h). In addition, the “RFU with 500 nM drug” value amounted to 2.12 RFU in [1] (30 min) and 5.88 RFU in data set [1] (4 h). Also, the “RFU with 1000 nM drug” value in data set [1] (30 min) is listed as 3.21 RFU; in data set [1] (4 h), 12.03 RFU. The “fold uptake more than acyclic-RGD-4C-DOXSF” value in data set [1] (1 h drug treatment) is reported as 3 fold. Also, the half-inhibitory concentration (IC50) was greater than 10000 nM in data set [2]; 800 nM in [3] (Homo sapiens, MDA-MB-435, 20 min, 20 min treatment); 300 nM in data set [3] (Homo sapiens, MDA-MB-435, 1 h treatment); 120 nM in data set [3] (Homo sapiens, MDA-MB-435, 4 h treatment); 300 ± 33 nM in [4] (Homo sapiens, MDA-MB-231, 4 h); 150 ± 14 nM in [5] (Homo sapiens, MDA-MB-435, 4 h). Besides, the IC50 in data set [6] (Homo sapiens, NCI/ADR-RES, 4 h) was 10000 ± 1300 nM; in data set [7] it was 300 nM; in [8] (Homo sapiens, MCF7), 300 nM; in [9] (Homo sapiens, NCI/ADR-RES), 8000 nM.
As for `CC/C(=C(/c1ccc(O)cc1)c1ccc(OCCN(C)CCOCCOCCO/N=C/c2ccc(O)c(C(=O)NCN[C@H]3C[C@H](O[C@H]4C[C@](O)(C(=O)CO)Cc5c(O)c6c(c(O)c54)C(=O)c4c(OC)cccc4C6=O)O[C@@H](C)[C@H]3O)c2)cc1)c1ccccc1` [11c, E/Z-N-(2-Hydroxy-5-{[2-(2-{2-[(2-{4-[1-(4-hydroxy-phenyl)-2-phenyl-but-1-enyl]-phenoxy}-ethyl)-methyl-amino]-ethoxy}-ethoxy)-ethoxyimino]-methyl}-benzamide)-doxorubicin], the half-maximal inhibitory concentration (IC50) amounted to 30 ± 5 nM in data set [4] (MDA-MB-231 (−/+/−), 4 h treatment, listed as DOX-TEG-TAM); 40 ± 6 nM in data set [5] (MDA-MB-435 (−/+/−), 4 h treatment, listed as DOX-TEG-TAM); 60 ± 9 nM in data set [6] (setting [10]). For the same molecule, the “fold more active than doxorubicin” value in data set [6] (MCF-7/Adr) came out at 140 fold. Moreover, the “fold more cytotoxic than untargeted doxsaliform” value in data set [6] (MCF-7/Adr) was 28 fold.

The values are drawn from patent US20070275911A1, “Targeted Drug-Formaldehyde Conjugates and Methods of Making and Using the Same” (priority 2003, published 2007).
